We go through 85 compounds from ChEMBL document CHEMBL1157539, “Thousands of chemical starting points for antimalarial lead identification” (Nature, 2010).

In the test the test system is Plasmodium falciparum. The test can be described thus: GSK_TCMDC: Inhibition of Plasmodium falciparum 3D7 in whole erythrocytes, using parasite LDH activity as an index of growth. It counts as functional, organism-based. The settings on record: Plasmodium falciparum, 3D7.
Compound `CCN1CCCC1CN(Cc1ccc(-c2ccc(C(F)(F)F)cc2)cc1)C(=O)Cn1c(CCc2cccc(F)c2F)nc(=O)c2ccccc21` (stereo not given) came in with an XC50 of 1.59 µM.

Regarding `CCN(CC)CCN(Cc1ccc(-c2ccc(C(F)(F)F)cc2)cc1)C(=O)Cn1c(SCc2ccc(F)cc2)nc(=O)c2sccc21`, the XC50 is 0.987 µM.

The compound `Cc1[nH]c(C)c(-c2ccc(Oc3ccccc3)cc2)c(=O)c1Br` showed an XC50 of 0.0468 µM.

`c1ccc(Nc2nc(-c3ccccn3)cs2)nc1` registered an XC50 of 1.15 µM.

`Cc1[nH]c(C)c(-c2ccc(Oc3ccc(F)cc3)cc2)c(=O)c1Cl`: the XC50 is 0.0505 µM.

`COc1ccc(S(=O)(=O)NC2CCN(CCNC(=O)Nc3cc(C)nc4ccccc34)C2)cc1` (stereo not given) had an XC50 of 1.19 µM.

`Cc1cc(Br)cnc1CCCCNC1=NC(=O)CN1C` had an XC50 of 0.366 µM.

As to `CCOC(=O)c1ccc(NC(=O)N[C@@H](Cc2ccccc2)C(=O)NC2CCN(Cc3ccc(O)c(OC)c3)C2)cc1` (stereo not given in full), the XC50 was found to be 0.989 µM.

In the case of `CC(C)[C@H](NC(=O)c1ccc(O)c(-c2ccc(Cl)c(Cl)c2)c1)C(=O)NCCN1CCCCC1`, the XC50 came to 0.339 µM.

`COC(=O)c1ccc(C[C@@H](C)NC[C@H](O)c2cccc(C(F)(F)F)c2)cc1` had an XC50 of 0.79 µM.

Compound `Cc1ccc(F)c(OCC2CCCN(c3ccc(C(=O)NC4CC4)cn3)C2)c1` (stereo not given) came in with an XC50 of 0.773 µM.

`O=C(/C=C/C=C/c1ccccc1)NCCCCCN1CCC(c2c[nH]c3ccccc23)CC1` registered an XC50 of 1.17 µM.

`CCN(C(=O)NC)C1c2cc(C#N)ccc2OC(C)(C)C1O` (stereo not given) returned an XC50 of 0.304 µM.

Turning to `Cc1cc(C2CCN(CCCCNC(=O)c3ccc(NC(=O)c4ccc(Cl)cc4)cc3)CC2)c(C)cc1OCc1cccnc1`, the XC50 was found to be 0.603 µM.

Compound `CCCCCCCCCN1CC[C@@H](CCCc2ccnc3ccc(O)cc23)[C@@H](CC)C1` yielded an XC50 of 0.29 µM.

Consider `COc1ccc(NC(=O)c2ccc3cc4ccccc4cc3c2)cc1N1CCN(C)CC1`, for which the XC50 came to 1.03 µM.

With `c1ccc(-c2nc(NC3CCCCC3)cc(C3CC3)n2)nc1`, the XC50 was 0.728 µM.

`Cc1cccc(CN2CCCN(Cc3ccc(C(=O)Nc4ccc(C)c(F)c4)cc3)CC2)c1` registered an XC50 of 1.06 µM.

Compound `O=C(NCCCCCN1CCC(c2c[nH]c3ccccc23)CC1)Nc1cccc(Br)c1` returned an XC50 of 1.11 µM.

For the compound `Oc1c(C=Nn2cnnc2)sc2ccccc12`, the XC50 turned out to be 0.911 µM.

In turn, `O=C(c1ccco1)N1CCN(c2nc(-c3ccc(Cl)cc3)nc3ccccc23)CC1` displayed an XC50 of 0.934 µM.

In turn, `CNCCNCc1ccc(-c2ccc(-c3nc4cccc(C)c4[nH]3)s2)cc1` came in with an XC50 of 0.732 µM.

Compound `O=C(/C=C/c1ccc(Cl)cc1)NCCCCCN1CCN(C(=O)C=Cc2ccc(Cl)c(Cl)c2)CC1` returned an XC50 of 0.987 µM.

Compound `CCCCCc1cc(O)c2c(c1)OC(C)(C)CC2C1=CCN(Cc2ccccc2)CC1` (stereo not given) yielded an XC50 of 0.767 µM.

`CNC(=O)c1ccc2[nH]cc(C3CCN(CC4CCC(NC(=O)/C=C/c5ccccc5Cl)CC4)CC3)c2c1` (stereo not given): the XC50 was found to be 0.836 µM.

Take `CN(C)CCOc1ccc(/C(=C(/CCCn2ccnc2)c2ccccc2)c2ccc(O)cc2)cc1`: the XC50 was determined as 0.772 µM.

`O=C(Nc1nccs1)c1cc(-c2cccnc2)nc2ccc(Br)cc12` had an XC50 of 0.403 µM.

`Cn1cc(C2CCN(CCCCNC(=O)c3ccc(-c4ccc(C(F)(F)F)cc4)c(CO)c3)CC2)c2ccccc21` registered an XC50 of 1 µM.

Regarding `CC(=O)N(Cc1ccccc1-c1cccc(CNCCc2ccccc2)c1)C1CCN(Cc2ccccc2)CC1`, the XC50 worked out at 1.1 µM.

With `COc1ccc2ncc(F)c(CCN3CCC(NCc4cc(C)c5c(c4)OCCO5)CC3)c2n1`, the XC50 came to 0.493 µM.

The compound `c1ccc(COc2ccc(C3CCCCC3)cc2)nc1` showed an XC50 of 0.774 µM.

`N=C(N)c1ccc(NN=Cc2ccc(Oc3ccc(C(=N)N)cc3)cc2)cc1` came in with an XC50 of 0.0902 µM.

In turn, `Cc1csc(NC(=O)c2cn(-c3ccccc3)nc2-c2cccs2)n1` registered an XC50 of 0.911 µM.

Consider `Cc1[nH]c(C)c(-c2ccc(OCc3cc(C(F)(F)F)cc(C(F)(F)F)c3)nc2)c(=O)c1Cl`, for which the XC50 was 0.108 µM.

Compound `CC(C)CN1CCN(CCNc2c3ccccc3nc3ccccc23)CC1` displayed an XC50 of 0.818 µM.

Consider `COc1cc(C(=O)N2CCOC(CCN3CCC(Cc4ccc(F)cc4)CC3)(c3ccc(Cl)c(Cl)c3)C2)cc(OC)c1OC` (stereo not given), for which the XC50 worked out at 0.902 µM.

On to `COc1ccc(NC(=O)N2CCCN(CCCCCNC(=O)/C=C/c3ccc(C(F)(F)F)cc3)CC2)cc1Cl`, for which the XC50 worked out at 0.98 µM.

Turning to `CC1(C)NC(N)=NC(=N)N1OCCCCOc1ccc(Cl)cc1C1CCCCC1`, the XC50 was found to be 0.0032 µM.

`O=C(Nc1ccc(OC2CCN(Cc3ccccc3)C2)c(Cl)c1)c1cccs1` (stereo not given): the XC50 is 0.388 µM.

As for `CN(C)CC(O)C(O)(c1ccccc1)c1ccc(F)cc1` (stereo not given), the XC50 turned out to be 1.15 µM.

Compound `O=C(Nc1ccc(C(=O)Nc2cccc(C3=NCCN3)c2)cc1)Nc1ccc(C2=NCCN2)cc1` came in with an XC50 of 0.096 µM.

`O=C(c1ccc([N+](=O)[O-])o1)N1CCN(c2nc3c(Cl)cccc3s2)CC1`: the XC50 was determined as 0.98 µM.

In the case of `Cc1cccc2nc(-c3ccc(-c4cccc(NC(=O)NCc5cccc(F)c5)c4)s3)[nH]c12`, the XC50 worked out at 0.76 µM.

Compound `CS(=O)(=O)NCCCNCc1ccc(-c2ccc(-c3nc4cc(F)ccc4[nH]3)s2)cc1` yielded an XC50 of 0.811 µM.

`CN(c1ccc(C(=O)N[C@@H](CCC(=O)O)C(=O)O)cc1)S(=O)(=O)c1ccc2nc(N)[nH]c(=O)c2c1` showed an XC50 of 0.149 µM.

`CC(C)Cc1nc2nc(N)nc(N)c2cc1C(C)C` gave an XC50 of 0.226 µM.

`CC(=O)Nc1ccc(OCCN(CC(C)(C)C)c2ccc(C#N)c(C(F)(F)F)c2)c(Cl)c1`: the XC50 stood at 0.493 µM.

Consider `Nc1c2c(nc3ccccc13)C(=Cc1ccc(O)cc1)CCC2`, for which the XC50 was 0.176 µM.

As for `COc1ccc(CCNC(=O)c2cnc3c(c2)nc(-c2c[nH]c(-c4ccccc4)n2)n3CCc2c[nH]cn2)cc1`, the XC50 worked out at 0.97 µM.

`Cc1cc(N(C)C)nc(Nc2ccc(NC(=O)c3ccccc3Cl)cc2)n1`: the XC50 worked out at 1.02 µM.

For the compound `Cc1[nH]c(C)c(-c2ccc(OCc3ccc(F)cc3)cc2)c(=O)c1Cl`, the XC50 turned out to be 0.566 µM.

With `CC(=O)Nc1ccc(C(=O)NC2CCN(c3ccnc4cc(Cl)ccc34)C2)cc1` (stereo not given), the XC50 is 0.806 µM.

`Cc1cc(C)c(NC(=O)N[C@H]2CCN(CCCCCNC(=O)/C=C/c3ccc(Cl)c(Cl)c3)C2)c(C)c1` registered an XC50 of 0.95 µM.

In the case of `CN(C)CCNC(=O)[C@H](CC1CCCCC1)NC(=O)c1ccc(O)c(-c2ccc(Cl)c(Cl)c2)c1`, the XC50 turned out to be 0.775 µM.

The compound `Cc1cc(N2CCN(C)CC2)nc2ccc(NC(=O)c3cccc(N(C)C)c3)cc12` had an XC50 of 0.954 µM.

`Cc1ccccc1C1CCN(C2CCC(NC(=O)/C=C/c3ccc(C#N)cc3)CC2)CC1` (stereo not given): the XC50 came to 1.17 µM.

In turn, `O=C(Cc1c[nH]cn1)Nc1cccc(-c2ccc(-c3nc4ccccc4[nH]3)cc2)c1` returned an XC50 of 0.761 µM.

Compound `OCC1CCN(Cc2ccc(-c3ccc(-c4nc5cc(F)ccc5[nH]4)cc3)cc2)CC1` yielded an XC50 of 0.845 µM.

With `Cc1cc(NCCCN2CCCC2=O)n2c(nc3ccccc32)c1C#N`, the XC50 is 0.858 µM.

With `Cc1cc(NC(=O)[C@@H](Nc2ccc(C#N)c3ccccc23)C2CCCCC2)ccc1F`, the XC50 was determined as 0.892 µM.

`COc1cccc(-c2cc(C(=O)Nc3ccc4[nH]c(-c5ccccc5)nc4c3)[nH]n2)c1`: the XC50 was determined as 0.836 µM.

The compound `COc1ccc(CC2(c3ccc(F)cc3)N=C(N)N(CCCc3ccc(F)c(F)c3)C2=O)cc1` (stereo not given) registered an XC50 of 0.779 µM.

`COc1ccccc1C1CCN(C2CCC(NC(=O)/C=C/c3cc(C(F)(F)F)ccc3F)CC2)CC1` (stereo not given) displayed an XC50 of 0.868 µM.

Regarding `CS(=O)(=O)CCN(CCS(C)(=O)=O)Cc1ccc(-c2ccc3ncnc(Nc4ccc(OCc5cccc(F)c5)c(Cl)c4)c3c2)o1`, the XC50 was determined as 1.02 µM.

On to `CC1(C)CC(NCCCCCCCOc2ccc(OCc3ccccc3)cc2)CC(C)(C)N1`, for which the XC50 was 0.827 µM.

`COc1ccc(C=NNc2ccnc3cc(F)c(C)cc23)c2ccccc12` displayed an XC50 of 0.771 µM.

Turning to `Cc1ccc(Cl)c2sc(N3CCN(C(=O)c4ccc([N+](=O)[O-])o4)CC3)nc12`, the XC50 worked out at 0.325 µM.

Compound `O=C(/C=C/c1ccc(Cl)c(Cl)c1)NCCC1CCC(N2CCC(c3c[nH]c4ccccc34)CC2)CC1` (stereo not given) returned an XC50 of 0.197 µM.

Compound `O=C(/C=C/c1ccc(Cl)c(Cl)c1)NCCCCCN1CCC(CCNC(=O)/C=C/c2cc(C(F)(F)F)ccc2F)CC1` displayed an XC50 of 0.765 µM.

The compound `CN1CCN(CCCN(Cc2cccc(-c3cccc(CNC4CCCC4)c3)c2)C(=O)CCC2CCCC2)CC1` displayed an XC50 of 0.675 µM.

The compound `O=C1OC(c2ccccc2)(c2ccccn2)CN1C1CCN(Cc2cccn2-c2ccc(Cl)cc2)CC1` (stereo not given) had an XC50 of 0.475 µM.

The compound `CC(C)(C)Oc1ccc(CC2NC3(C(=O)N(Cc4ccc(C(C)(C)C)cc4)c4ccccc43)C3C(=O)N(c4ccc(Br)cc4)C(=O)C23)cc1` (stereo not given) came in with an XC50 of 0.717 µM.

As for `O=C(O)c1cccc2c(-c3ccncc3)cccc12`, the XC50 amounted to 0.937 µM.

As for `Cc1nc(-c2ccc3c(c2)CCN(CCC2CCC(NC(=O)c4cc5cccc(Cl)c5[nH]4)CC2)CC3)no1` (stereo not given), the XC50 was found to be 0.633 µM.

As for `CC(C)C(=O)ONC1=NC(C)(C)N(OCCCOc2cc(Cl)c(Cl)cc2Cl)C(NOC(=O)C(C)C)=N1`, the XC50 came out at 0.0266 µM.

As to `Cc1ccc(-c2nn3c(O)c4c(nc3c2C)CCCC4)cc1`, the XC50 is 0.217 µM.

Turning to `CCCC1(C)CSc2ccccc2C(c2ccccc2)N1` (stereo not given), the XC50 is 0.707 µM.

For `O=[N+]([O-])c1cccc(CNCC2CCN(CCc3ccccc3)CC2)c1`, the XC50 came to 0.785 µM.

The compound `CCCC(N)C(=O)NC1CCN(c2c(F)c(N)c3c(=O)c(C(=O)O)cn4c3c2Oc2ccccc2-4)C1` (stereo not given) showed an XC50 of 0.359 µM.

`O=C(NC(Nc1ccc([N+](=O)[O-])cc1)C(Cl)(Cl)Cl)c1ccc(Cl)cc1` (stereo not given) displayed an XC50 of 0.782 µM.

Turning to `O=[N+]([O-])c1cccc(CNCC2CCN(Cc3ccc4ccccc4c3)CC2)c1`, the XC50 amounted to 0.876 µM.

Compound `COc1ccc2ncc(F)c(CCN3CCC(NCc4cc(OC)c5c(c4)OCCO5)CC3)c2n1` displayed an XC50 of 0.572 µM.

`CC(Cc1ccc(NS(=O)(=O)c2ccc(CC(C)NCCc3cccc(Cl)c3)cc2)cc1)NCCc1cccc(Cl)c1` (stereo not given) came in with an XC50 of 0.775 µM.

Regarding `O=C(NCC1CCC(C(=O)NCc2cccc3ccccc23)CC1)c1ccc(O)c(-c2ccc(Cl)c(Cl)c2)c1` (stereo not given), the XC50 was found to be 0.749 µM.

`CCc1c(CCNCCCCCCNC(C)Cc2ccc3c(c2CC)OCO3)ccc(OC)c1OC` (stereo not given) registered an XC50 of 0.87 µM.
